The results in this text go back to PMC5691699, “Processing ‘Ataulfo’ Mango into Juice Preserves the Bioavailability and Antioxidant Capacity of Its Phenolic Compounds” (Nutrients, 2017).

A short description of data set [1]: Urinary excretion (0–24 h) of phenolic compounds after 'Ataulfo' mango flesh or juice, HPLC-ECD. The settings on record: for detection in urine: after mango flesh and juice consumption, 0–24 h; for urinary excretion, juice group versus flesh group: at 0–4 and 4–8 h, normalized to creatinine.
Description: (§1) Twelve middle-aged healthy men aged 22 to 34 years were recruited from CIAD. […] All subjects were free of diagnosed heart disease, homeostatic disorders, gastrointestinal disease, or other medical conditions; they were not taking any medication or any vitamin/mineral supplement.
(§2) After baseline (time 0), blood and urine were collected, subjects were randomly assigned to consume mango flesh slices or juice in a 10-min period, in random order separated by a 3 day wash-out period. […] Blood was collected in a vacutainer tube containing EDTA as anticoagulant. Plasma was recovered, and 0.5 mL aliquots were immediately acidified using 20 µL of 4 M HCl. Acidified plasma and urine samples were stored at −80 °C until analysis. During blood collection, subjects were only allowed water, other foods and beverages were not allowed. They were given a hamburger without vegetables and ketchup for lunch. For dinner, they were allowed to eat a meal, but with the same restrictions as those of the wash-out period.
(§3) Phenolics in urine were quantified according to the method of McKay et al. [20]. Urine (200 µL) was dissolved in 800 µL of buffer (0.1 M sodium acetate, pH 5) and 30 µL of β-glucuronidase/sulfatase (98,000 kU/L β-glucuronidase and 2400 kU/L sulfatase), and incubated at 37 °C for 60 min. After incubation, 10 µL of 100 µg/mL internal standard (2′,3′,4′-trihydroxyacetophenone) and 200 µL glacial acetic acid were added, and the mixture was briefly vortexed. After the addition of approximately 1 g of NaCl, phenolics were extracted twice with 3 mL of ethyl acetate. The combined ethyl acetate fractions were dried under nitrogen gas and reconstituted in 1 mL of the aqueous HPLC mobile phase, filtered through a 0.22-µm Millex syringe-driven filter (Millipore Corporation, Bedford, MA, USA), and injected (50 µL) onto the HPLC-ECD system. […] The intraday CV for standards spiked into urine was <7%. Urinary phenolics were normalized to creatinine concentration, which was measured with a commercial kit.
Another data set in a line: clinical. The settings on record: for AUC/Dose: dose-adjusted AUC 0 to 6 h, n = 12. From the text: Phenolics in plasma were quantified according to the method of Chen, Milbury, Lapsley, and Blumberg. […] Subsequently, phenolics were extracted with acetonitrile. After centrifugation, the supernatant was removed, dried with nitrogen gas, and reconstituted in the aqueous HPLC mobile phase, filtered using Ultrafree Durapore Centrifugal filter devices (0.22, Merck Millipore, Billerica, MA, USA), and injected into the HPLC- ECD system, using previously optimized chromatographic conditions. The mobile phases were 75 mM citric acid and 25 mM ammonium acetate in 90% water/10% acetonitrile (A), and 75 mM citric acid and 25 mM ammonium acetate in 50% water/50% acetonitrile (B).
Results are expressed as mean ± standard deviation (SD). The maximum concentration (Cmax) in plasma and the time to reach Cmax (Tmax) were visually identified. The area under the concentration-time curve (AUC) of plasma phenolics was calculated using the linear trapezoidal integration equation [24]. The differences in Cmax, Tmax, and AUC of phenolics between mango flesh and juice treatments were examined using an analysis of covariance, with time 0 values as the covariant, followed by the Tukey-Kramer multi-comparison test. The Number Cruncher Statistical System version 6.0 software (NCSS, NCSS LLC, Kaysville, UT, USA) was used to perform all statistical analyses.

For data set [2] the following is noted: in vivo.
Description: as §1, §2, §3
Setting [3] is: after mango flesh and juice consumption, 0–6 h.
The mark [4] stands for this setting: male, human, plasma, oral, 500 g, AUC, plasma, time 0 to 6 h, after 500 g mango flesh, n = 12, mean ± SD.
The mark [5] stands for this setting: male, human, plasma, oral, 500 g, Cmax, plasma, after 500 g mango flesh, healthy men, n = 12, mean ± SD.
[6] abbreviates: male, human, plasma, oral, 500 g, Tmax, plasma, after 500 g mango flesh, healthy men, n = 12, mean ± SD.
The mark [7] stands for this setting: male, human, plasma, oral, 721 g, AUC, plasma, time 0 to 6 h, after 721 g mango juice, n = 12, mean ± SD.
[8] abbreviates: male, human, plasma, oral, 721 g, Cmax, plasma, after 721 g mango juice, healthy men, n = 12, mean ± SD.
Where [9] appears, read: male, human, plasma, oral, 721 g, Tmax, plasma, after 721 g mango juice, healthy men, n = 12, mean ± SD.
Where [10] appears, read: plasma, after 500 g mango flesh.
Where [11] appears, read: plasma, after 721 g mango juice.
[12] abbreviates: plasma, after 500 g mango flesh, healthy men, n = 12, mean ± SD.
The mark [13] stands for this setting: plasma, after 721 g mango juice, healthy men, n = 12, mean ± SD.

Like-named read-outs stand apart in the source and are kept apart here.

Regarding `Oc1cccc(O)c1O` [Pyrogallol, pyrogallol], the detection in urine result in data set [1] is listed as “found in urine”.

Turning to `O=C(/C=C/c1ccc(O)c(O)c1)O[C@@H]1C[C@](O)(C(=O)O)C[C@@H](O)[C@H]1O` [Chlorogenic acid, chlorogenic acid], in “clinical” (setting [3]), the detection in plasma entry is given as “detected in plasma”. For the same compound, the AUC in “clinical” (setting [4]) came out at 209 ± 24.5 ng·h/mL; in “clinical” (setting [7]), 367 ± 131 ng·h/mL. The Cmax turned out to be 49.7 ± 7.3 ng/mL in the data set “clinical” (setting [5]) and 109.7 ± 0.26 ng/mL in the data set “clinical” (setting [8]). Besides, the values for the Tmax in “clinical” (setting [6]) and in “clinical” (setting [9]) were 3.5 ± 1.4 h and 2.5 ± 1.8 h, respectively. Further, in “clinical” (mango juice compared with flesh), the “higher absorption from mango juice” value was found to be 62%. The results for the AUC/Dose in the data set “clinical” (setting [10]) and in the data set “clinical” (setting [11]) were 11.5 ± 1.78 (ng h/mL)/mg and 50.12 ± 15.5 (ng h/mL)/mg, respectively.

Consider `O=C(O)/C=C/c1ccc(O)cc1` [p-coumaric acid], for which, in data set [1], the detection in urine result is given as “detected in urine” and the “urinary excretion, juice group versus flesh group” value is listed as “significantly higher”.

For the compound `COc1cc(/C=C/C(=O)O)cc(OC)c1O` [sinapic acid], in data set [2] (human), the “urinary AUC/dose excretion” value was “Higher”. For the same compound, in data set [2], the detection in urine entry is listed as “detected in urine”. Further, the detection in plasma result in “clinical” (in vivo) was “not in plasma”.

Take `COc1cc(/C=C/C(=O)O)ccc1O` [Ferulic acid, ferulic acid]: in the data set “clinical” (setting [3]), the detection in plasma result is reported as “detected in plasma”. In addition, the values for the Cmax in “clinical” (setting [12]) and in “clinical” (setting [13]) were 16.5 ± 3.9 ng/mL and 32.7 ± 10.9 ng/mL, respectively. Also, the Tmax in “clinical” (setting [12]) was determined as 2.8 ± 2.1 h; in the data set “clinical” (setting [13]), 2.3 ± 1.5 h. The figures for the AUC/Dose in “clinical” (setting [10]) and in the data set “clinical” (setting [11]) were 31.0 ± 9.63 (ng h/mL)/mg and 83.8 ± 30.2 (ng h/mL)/mg, respectively. In addition, the AUC in “clinical” (plasma, time 0 to 6 h, after 500 g mango flesh, n = 12, mean ± SD) worked out at 60.2 ± 22.7 ng·h/mL; in “clinical” (plasma, time 0 to 6 h, after 721 g mango juice, n = 12, mean ± SD) it was 133.4 ± 47.7 ng·h/mL. For the same compound, the detection in urine result in data set [1] is listed as “detected in urine”. In addition, the “urinary excretion, juice group versus flesh group” value in data set [1] is listed as “significantly higher”.

On to `COc1cc(C(=O)O)ccc1O` [Vanillic acid, vanillic acid], for which the detection in plasma entry in the data set “clinical” (setting [3]) is on record as “not in plasma”. Further, the detection in urine entry in data set [1] is recorded as “detected in urine”. Further, in data set [1] (compared with the other urinary phenolics, values higher in the juice group), the “urinary AUC/dose excretion” value was “Higher”.

Consider `O=C(O)c1ccc(O)c(O)c1` [Protocatechuic acid, protocatechuic acid], for which, in “clinical” (setting [3]), the detection in plasma result is listed as “detected in plasma”. In addition, the figures for the AUC in the data set “clinical” (setting [4]) and in “clinical” (setting [7]) were 141 ± 73.9 ng·h/mL and 109 ± 5.4 ng·h/mL, respectively. Besides, the Cmax in “clinical” (setting [5]) worked out at 30.8 ± 13.3 ng/mL; in the data set “clinical” (setting [8]) it was 34.5 ± 18 ng/mL. Besides, the Tmax stood at 3.5 ± 2 h in the data set “clinical” (setting [6]) and 3.7 ± 1.7 h in “clinical” (setting [9]). Besides, in the data set “clinical” (mango flesh compared with juice), the “greater absorption from mango flesh” value was 49%. The AUC/Dose is reported as 344.8 ± 138.3 (ng h/mL)/mg in the data set “clinical” (setting [10]) and 204.90 ± 9.9 (ng h/mL)/mg in the data set “clinical” (setting [11]). Also, the detection in urine entry in data set [1] is “not in urine”.

For `O=C(O)c1cc(O)c(O)c(O)c1` [Gallic acid, gallic acid], the area under the curve (AUC) in the data set “clinical” (male, human, in vivo) was found to be 38.5 ± 14.5 ng·h/mL; in “clinical” (male, human, in vivo, AUC), 36.9 ± 24.3 ng·h/mL. Also, the Cmax in the data set “clinical” (male, human, in vivo) stood at 7.9 ± 4.7 ng/mL; in “clinical” (male, human, in vivo, Cmax), 8.7 ± 1.7 ng/mL. Moreover, the Tmax in “clinical” (male, human, in vivo, Tmax, plasma, after 500 g mango flesh, healthy men, n = 12, mean ± SD) was determined as 4.4 ± 1.1 h; in the data set “clinical” (male, human, in vivo, Tmax, plasma, after 721 g mango juice, healthy men, n = 12, mean ± SD) it was 3.5 ± 1 h.

Turning to `O=C(O)c1cc(O)ccc1O` [Gentisic acid, gentisic acid], the detection in plasma result in “clinical” (setting [3]) was “detected in plasma”. Also, the AUC in the data set “clinical” (male, human, in vivo) was 50.9 ± 11.0 ng·h/mL; in “clinical” (male, human, in vivo, AUC) it was 53.1 ± 8.3 ng·h/mL. Also, the Cmax in “clinical” (male, human, in vivo) came out at 12.2 ± 0.2 ng/mL; in the data set “clinical” (male, human, in vivo, Cmax) it was 11.8 ± 2.1 ng/mL. The Tmax is 2.8 ± 1.9 h in the data set “clinical” (male, human, in vivo) and 4 ± 1.4 h in the data set “clinical” (male, human, in vivo, Tmax). Besides, the AUC/Dose in the data set “clinical” (setting [10]) is recorded as 221.2 ± 34.0 (ng h/mL)/mg; in the data set “clinical” (setting [11]), 282.7 ± 59.1 (ng h/mL)/mg. In addition, in data set [1], the detection in urine entry is “not in urine”.
